Tests used:
Assay in all cases: Post-emergence glasshouse herbicide test, visual phytotoxicity
Format in all cases: in vivo
Settings in all cases: 13 days
[1] = test system: Abutilon threophrasti (ABUTH)
Method: (§1) Seeds of Setaria faberi (SETFA), Echinochloa crus-galli (ECHCG), Digitaria sanguinalis (DIGSA), Lolium perenne (LOLPE), Alopecurus myosuroides (ALOMY), Chenopodium album (CHEAL), Ipomoea hederacea (IPOHE), Stellaria media (STEME), Abutilon threophrasti (ABUTH) and Amaranthus retroflexus (AMARE) were sown in standard sterilised soil in pots. After cultivation for 8 days under controlled conditions in a glasshouse (at 24/19° C., day/night; 16 hours light; no humidity control), the plants were sprayed at 500 l/Ha with an aqueous spray solution derived from the formulation of the technical active ingredients in a small amount of acetone and a solvent and emulsifier mixture referred to as IF50 (11.12% Emulsogen EL360 TM+44.44% N-methylpyrrolidone+44.44% Dowanol DPM glycol ether), to create a 50 g/l solution which was then diluted using 0.2% Genapol X080 (CAS Number: 9043-30-5) as diluent to give the desired final dose of test compound.
(§2) Where active ingredients were applied as mixtures, aqueous spray solutions were prepared as above, containing both active ingredients.
(§3) The test plants were then grown under controlled conditions in a glasshouse (at 24/18° C., day/night; 15 hours light; 50% humidity) and watered twice daily. After 13 days, the test was evaluated visually for percentage phytotoxicity to the plants (where 100=total damage to plant; 0=no damage to plant; and NC=not captured) when compared to control untreated plants. Two to four replicates were applied for each treatment in a randomised block test design.
(§4) 22., E=X+Y−(X*Y/100), where • X=average percent phytotoxicity of herbicide A when applied at a certain rate • Y=average percent phytotoxicity using herbicide B when applied at a certain rate • E=the expected effect of the mixture of herbicides A and B as calculated from the Colby formula.

Lolium perenne (LOLPE) = test system: Lolium perenne (LOLPE)
Method: as §1, §2, §3, §4

[2] = test system: Digitaria sanguinalis (DIGSA)
Method: as §1, §2, §3, §4

Stellaria media (STEME) = test system: Stellaria media (STEME)
Method: as §1, §2, §3, §4

[3] = test system: Ipomoea hederacea (IPOHE)
Method: as §1, §2, §3, §4

[4] = test system: Chenopodium album (CHEAL)
Method: as §1, §2, §3, §4

Setaria faberi (SETFA) = test system: Setaria faberi (SETFA)
Method: as §1, §2, §3, §4

[5] = test system: Echinochloa crus-galli (ECHCG)
Method: as §1, §2, §3, §4

[6] = test system: Amaranthus retroflexus (AMARE)
Method: as §1, §2, §3, §4

[7] = test system: Alopecurus myosuroides (ALOMY)
Method: as §1, §2, §3, §4

SMILES: CN1C[C@H](c2cccc(C(F)(F)F)c2)[C@@H](C(=O)Nc2ccccc2F)C1=O [B-III]
- percentage phytotoxicity ABUTH ([1]; 3.125 g/ha): 10%
- percentage phytotoxicity ABUTH ([1]; 6.25 g/ha): 4%
- percentage phytotoxicity ABUTH ([1]; 12.5 g/ha): 3%
- percentage phytotoxicity ABUTH ([1]; 25 g/ha): 19%
- percentage phytotoxicity ABUTH ([1]; 50 g/ha): 18%
- percentage phytotoxicity LOLPE (Lolium perenne (LOLPE); 3.125 g/ha): 30%
- percentage phytotoxicity LOLPE (Lolium perenne (LOLPE); 6.25 g/ha): 43%
- percentage phytotoxicity LOLPE (Lolium perenne (LOLPE); 12.5 g/ha): 55%
- percentage phytotoxicity LOLPE (Lolium perenne (LOLPE); 25 g/ha): 70%
- percentage phytotoxicity LOLPE (Lolium perenne (LOLPE); 50 g/ha): 75%
- percentage phytotoxicity DIGSA ([2]; 3.125 g/ha): 72%
- percentage phytotoxicity DIGSA ([2]; 6.25 g/ha): 74%
- percentage phytotoxicity DIGSA ([2]; 12.5 g/ha): 78%
- percentage phytotoxicity DIGSA ([2]; 25 g/ha): 79%
- percentage phytotoxicity DIGSA ([2]; 50 g/ha): 80%
- percentage phytotoxicity STEME (Stellaria media (STEME); 3.125 g/ha): 13%
- percentage phytotoxicity STEME (Stellaria media (STEME); 6.25 g/ha): 21%
- percentage phytotoxicity STEME (Stellaria media (STEME); 12.5 g/ha): 14%
- percentage phytotoxicity STEME (Stellaria media (STEME); 25 g/ha): 46%
- percentage phytotoxicity STEME (Stellaria media (STEME); 50 g/ha): 71%
- percentage phytotoxicity IPOHE ([3]; 3.125 g/ha): 9%
- percentage phytotoxicity IPOHE ([3]; 6.25 g/ha): 11%
- percentage phytotoxicity IPOHE ([3]; 12.5 g/ha): 15%
- percentage phytotoxicity IPOHE ([3]; 25 g/ha): 24%
- percentage phytotoxicity IPOHE ([3]; 50 g/ha): 28%
- percentage phytotoxicity CHEAL ([4]; 3.125 g/ha): 6%
- percentage phytotoxicity CHEAL ([4]; 6.25 g/ha): 10%
- percentage phytotoxicity CHEAL ([4]; 12.5 g/ha): 14%
- percentage phytotoxicity CHEAL ([4]; 25 g/ha): 44%
- percentage phytotoxicity CHEAL ([4]; 50 g/ha): 56%
- percentage phytotoxicity SETFA (Setaria faberi (SETFA); 3.125 g/ha): 66%
- percentage phytotoxicity SETFA (Setaria faberi (SETFA); 6.25 g/ha): 68%
- percentage phytotoxicity SETFA (Setaria faberi (SETFA); 12.5 g/ha): 70%
- percentage phytotoxicity SETFA (Setaria faberi (SETFA); 25 g/ha): 74%
- percentage phytotoxicity SETFA (Setaria faberi (SETFA); 50 g/ha): 73%
- percentage phytotoxicity ECHCG ([5]; 3.125 g/ha): 70%
- percentage phytotoxicity ECHCG ([5]; 6.25 g/ha): 70%
- percentage phytotoxicity ECHCG ([5]; 12.5 g/ha): 73%
- percentage phytotoxicity ECHCG ([5]; 25 g/ha): 73%
- percentage phytotoxicity ECHCG ([5]; 50 g/ha): 75%
- percentage phytotoxicity AMARE ([6]; 3.125 g/ha): 4%
- percentage phytotoxicity AMARE ([6]; 6.25 g/ha): 6%
- percentage phytotoxicity AMARE ([6]; 12.5 g/ha): 10%
- percentage phytotoxicity AMARE ([6]; 25 g/ha): 21%
- percentage phytotoxicity AMARE ([6]; 50 g/ha): 31%

SMILES: Nc1c(F)c(-c2ccc3cc[nH]c3c2F)nc(C(=O)O)c1Cl [B-VI]
- percentage phytotoxicity ABUTH ([1]; 0.625 g/ha): 48%
- percentage phytotoxicity ABUTH ([1]; 1.25 g/ha): 70%
- percentage phytotoxicity ABUTH ([1]; 2.5 g/ha): 78%
- percentage phytotoxicity ABUTH ([1]; 5 g/ha): 80%
- percentage phytotoxicity ABUTH ([1]; 10 g/ha): 93%
- percentage phytotoxicity LOLPE (Lolium perenne (LOLPE); 0.625 g/ha): 0%
- percentage phytotoxicity LOLPE (Lolium perenne (LOLPE); 1.25 g/ha): 0%
- percentage phytotoxicity LOLPE (Lolium perenne (LOLPE); 2.5 g/ha): 5%
- percentage phytotoxicity LOLPE (Lolium perenne (LOLPE); 5 g/ha): 5%
- percentage phytotoxicity LOLPE (Lolium perenne (LOLPE); 10 g/ha): 25%
- percentage phytotoxicity DIGSA ([2]; 0.625 g/ha): 0%
- percentage phytotoxicity DIGSA ([2]; 1.25 g/ha): 0%
- percentage phytotoxicity DIGSA ([2]; 2.5 g/ha): 13%
- percentage phytotoxicity DIGSA ([2]; 5 g/ha): 15%
- percentage phytotoxicity DIGSA ([2]; 10 g/ha): 43%
- percentage phytotoxicity STEME (Stellaria media (STEME); 0.625 g/ha): 65%
- percentage phytotoxicity STEME (Stellaria media (STEME); 1.25 g/ha): 75%
- percentage phytotoxicity STEME (Stellaria media (STEME); 2.5 g/ha): 90%
- percentage phytotoxicity STEME (Stellaria media (STEME); 5 g/ha): 93%
- percentage phytotoxicity STEME (Stellaria media (STEME); 10 g/ha): 99%
- percentage phytotoxicity ALOMY ([7]; 0.625 g/ha): 0%
- percentage phytotoxicity ALOMY ([7]; 1.25 g/ha): 0%
- percentage phytotoxicity ALOMY ([7]; 2.5 g/ha): 10%
- percentage phytotoxicity ALOMY ([7]; 5 g/ha): 8%
- percentage phytotoxicity ALOMY ([7]; 10 g/ha): 25%
- percentage phytotoxicity IPOHE ([3]; 0.625 g/ha): 25%
- percentage phytotoxicity IPOHE ([3]; 1.25 g/ha): 35%
- percentage phytotoxicity IPOHE ([3]; 2.5 g/ha): 38%
- percentage phytotoxicity IPOHE ([3]; 5 g/ha): 48%
- percentage phytotoxicity IPOHE ([3]; 10 g/ha): 65%
- percentage phytotoxicity CHEAL ([4]; 0.625 g/ha): 75%
- percentage phytotoxicity CHEAL ([4]; 1.25 g/ha): 80%
- percentage phytotoxicity CHEAL ([4]; 2.5 g/ha): 83%
- percentage phytotoxicity CHEAL ([4]; 5 g/ha): 94%
- percentage phytotoxicity CHEAL ([4]; 10 g/ha): 98%
- percentage phytotoxicity SETFA (Setaria faberi (SETFA); 0.625 g/ha): 0%
- percentage phytotoxicity SETFA (Setaria faberi (SETFA); 1.25 g/ha): 0%
- percentage phytotoxicity SETFA (Setaria faberi (SETFA); 2.5 g/ha): 5%
- percentage phytotoxicity SETFA (Setaria faberi (SETFA); 5 g/ha): 2%
- percentage phytotoxicity SETFA (Setaria faberi (SETFA); 10 g/ha): 40%
- percentage phytotoxicity ECHCG ([5]; 0.625 g/ha): 0%
- percentage phytotoxicity ECHCG ([5]; 1.25 g/ha): 0%
- percentage phytotoxicity ECHCG ([5]; 2.5 g/ha): 25%
- percentage phytotoxicity ECHCG ([5]; 5 g/ha): 10%
- percentage phytotoxicity ECHCG ([5]; 10 g/ha): 53%
- percentage phytotoxicity AMARE ([6]; 0.625 g/ha): 83%
- percentage phytotoxicity AMARE ([6]; 1.25 g/ha): 83%
- percentage phytotoxicity AMARE ([6]; 2.5 g/ha): 90%
- percentage phytotoxicity AMARE ([6]; 5 g/ha): 98%
- percentage phytotoxicity AMARE ([6]; 10 g/ha): 100%

Source: patent publication US20230284620A1, “MIXTURES OF PYRIDAZINES AS HERBICIDAL COMPOSITIONS” (SYNGENTA CROP PROTECTION AG, priority 2020, published 2023)
